The text below walks through data of patent publication US10435399B2, “HDAC6 inhibitory heterocyclic compound” (TAKEDA PHARMACEUTICAL COMPANY LIMITED, priority 2017, dated 2019).

For this experiment, the target named is T1, HDAC6 enzyme (Homo sapiens, UniProt Q9UBN7).
T1 construct: transducing full length HDAC6 gene into Sf-9 insect cells; GST; purchased SignalChem; host or cells: Sf-9 insect cells
T1 sequence (Q9UBN7 1-1215): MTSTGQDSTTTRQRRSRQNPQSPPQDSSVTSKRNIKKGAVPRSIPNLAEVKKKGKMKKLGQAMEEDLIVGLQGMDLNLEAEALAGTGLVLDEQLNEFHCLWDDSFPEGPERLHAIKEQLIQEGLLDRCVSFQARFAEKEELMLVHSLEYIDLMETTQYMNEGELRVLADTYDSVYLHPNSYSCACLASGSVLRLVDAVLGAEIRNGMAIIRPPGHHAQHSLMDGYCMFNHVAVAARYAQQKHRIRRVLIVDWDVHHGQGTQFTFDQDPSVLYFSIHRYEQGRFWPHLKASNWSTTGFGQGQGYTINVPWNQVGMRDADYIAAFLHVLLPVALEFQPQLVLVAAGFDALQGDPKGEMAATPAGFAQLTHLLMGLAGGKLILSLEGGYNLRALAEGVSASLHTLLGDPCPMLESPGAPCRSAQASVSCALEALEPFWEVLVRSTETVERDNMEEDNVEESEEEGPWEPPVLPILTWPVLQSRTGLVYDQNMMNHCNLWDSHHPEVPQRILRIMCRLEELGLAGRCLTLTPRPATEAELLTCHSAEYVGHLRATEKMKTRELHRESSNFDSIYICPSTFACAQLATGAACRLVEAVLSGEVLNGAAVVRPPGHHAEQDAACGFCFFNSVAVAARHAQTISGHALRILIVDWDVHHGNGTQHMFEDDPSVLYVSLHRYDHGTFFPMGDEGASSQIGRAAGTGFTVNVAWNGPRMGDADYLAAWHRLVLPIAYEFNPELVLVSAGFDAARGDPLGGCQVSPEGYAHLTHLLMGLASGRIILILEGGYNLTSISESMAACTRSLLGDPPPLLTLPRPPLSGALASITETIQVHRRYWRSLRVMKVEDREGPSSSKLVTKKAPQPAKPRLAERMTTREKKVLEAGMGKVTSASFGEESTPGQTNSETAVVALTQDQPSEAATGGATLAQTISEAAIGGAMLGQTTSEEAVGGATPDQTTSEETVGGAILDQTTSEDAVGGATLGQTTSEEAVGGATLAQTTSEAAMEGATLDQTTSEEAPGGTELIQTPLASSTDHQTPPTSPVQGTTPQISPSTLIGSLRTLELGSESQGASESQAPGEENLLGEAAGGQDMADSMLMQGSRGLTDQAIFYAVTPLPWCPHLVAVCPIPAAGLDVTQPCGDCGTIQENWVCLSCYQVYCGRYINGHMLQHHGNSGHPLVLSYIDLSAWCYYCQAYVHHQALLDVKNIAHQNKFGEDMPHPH
Nature of the experiment: HDAC6 enzyme inhibitory activity (HDAC-Glo I/II Assay kit). In kind it is biochemical. To be noted: 10 μM; wells without enzyme = 100% inhibition; read-out: HDAC6 inhibitory rate (%) (10 μM). In outline:
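Sf-9-derived GST-purified full-length HDAC6 + cpd, 60 min RT, 24 mM Tris pH 7.5/0.6 mM glutathione/0.01% Tween-20; add HDAC-Glo substrate-developer, 20 min RT; luminescence. No-enzyme = 100% inhibition.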
On to `O=C1c2cc(-c3nnc(C(F)F)o3)ccc2CN1c1ccccc1-c1cccc(F)n1` [Example 301, 6-(5-(difluoromethyl)-1,3,4-oxadiazol-2-yl)-2-(2-(6-fluoropyridin-2-yl)phenyl)-isoindolin-1-one], for which the inhibition at 10 µM is 106%.
As for `COc1cccc(-c2ccccc2N2Cc3ccc(-c4nnc(C(F)F)o4)cc3C2=O)n1` [Example 302, 6-(5-(difluoromethyl)-1,3,4-oxadiazol-2-yl)-2-(2-(6-methoxypyridin-2-yl)-phenyl)isoindolin-1-one], the figure is 100%; as for `O=C1c2cc(-c3nnc(C(F)F)o3)ccc2CN1c1ccccc1-c1cnc2occc2c1` [Example 303, 6-(5-(difluoromethyl)-1,3,4-oxadiazol-2-yl)-2-(2-(furo-[2,3-b]pyridin-5-yl)phenyl)-isoindolin-1-one], 99%; as for `O=C1c2cc(-c3nnc(C(F)F)o3)ccc2CN1c1ccccc1-c1ccc2c(c1)OCC2` [Example 304, 6-(5-(difluoromethyl)-1,3,4-oxadiazol-2-yl)-2-(2-(2,3-dihydro-1-benzofuran-6-yl)phenyl)isoindolin-1-one], 99%.
As for `O=C1c2cc(-c3nnc(C(F)F)o3)ccc2CN1c1ccccc1-c1cccc(Cl)n1` [Example 305, 2-(2-(6-chloropyridin-2-yl)-phenyl)-6-(5-(difluoro-methyl)-1,3,4-oxadiazol-2-yl)isoindolin-1-one], the figure is 101%; as for `Cc1cn2cc(-c3ccccc3N3Cc4ccc(-c5nnc(C(F)F)o5)cc4C3=O)ccc2n1` [Example 306, 6-(5-(difluoromethyl)-1,3,4-oxadiazol-2-yl)-2-(2-(2-methylimidazo[1,2-a]-pyridin-6-yl)phenyl)-isoindolin-1-one], 101%; as for `O=C1c2cc(-c3nnc(C(F)F)o3)ccc2CN1c1ccccc1-c1ccc(F)c(F)c1` [Example 307, 2-(3′,4′-difluorobiphenyl-2-yl)-6-(5-(difluoromethyl)-1,3,4-oxadiazol-2-yl)-isoindolin-1-one], 98%.
With `O=C1c2cc(-c3nnc(C(F)F)o3)ccc2CN1c1ccccc1-c1cccc(F)c1F` [Example 308, 2-(2′,3′-difluorobiphenyl-2-yl)-6-(5-(difluoromethyl)-1,3,4-oxadiazol-2-yl)-isoindolin-1-one] the figure was 97%.
Turning to `O=C1c2cc(-c3nnc(C(F)F)o3)ccc2CN1c1ccccc1-c1cc(F)ccc1F` [Example 309, 2-(2′,5′-difluorobiphenyl-2-yl)-6-(5-(difluoromethyl)-1,3,4-oxadiazol-2-yl)isoindolin-1-one], the inhibition at 10 µM turned out to be 97%.
As for `O=C1c2cc(-c3nnc(C(F)F)o3)ccc2CN1c1ccccc1-c1ccc(F)cc1F` [Example 310, 2-(2′,4′-difluorobiphenyl-2-yl)-6-(5-(difluoromethyl)-1,3,4-oxadiazol-2-yl)isoindolin-1-one], the figure is 91%; as for `Cc1ccccc1-c1ccccc1N1Cc2ccc(-c3nnc(C(F)F)o3)cc2C1=O` [Example 311, 6-(5-(difluoromethyl)-1,3,4-oxadiazol-2-yl)-2-(2′-methyl-biphenyl-2-yl)isoindolin-1-one], 99%.
Take `Cc1cccc(-c2ccccc2N2Cc3ccc(-c4nnc(C(F)F)o4)cc3C2=O)c1` [Example 312, 6-(5-(difluoromethyl)-1,3,4-oxadiazol-2-yl)-2-(3′-methyl-biphenyl-2-yl)isoindolin-1-one]: the inhibition at 10 µM is 96%.
As for `Cc1ccc(-c2ccccc2N2Cc3ccc(-c4nnc(C(F)F)o4)cc3C2=O)cc1` [Example 313, 6-(5-(difluoromethyl)-1,3,4-oxadiazol-2-yl)-2-(4′-methyl-biphenyl-2-yl)isoindolin-1-one], the inhibition at 10 µM stood at 98%.
As for `CS(=O)(=O)c1cncc(-c2ccccc2N2Cc3ccc(-c4nnc(C(F)F)o4)cc3C2=O)c1` [Example 314, 6-(5-(difluoromethyl)-1,3,4-oxadiazol-2-yl)-2-(2-(5-(methylsulfonyl)pyridin-3-yl)phenyl)isoindolin-1-one], the figure is 101%; as for `O=C1c2cc(-c3nnc(C(F)F)o3)ccc2CN1c1ccccc1-c1cccc(OCC(F)(F)F)c1` [Example 315, 6-(5-(difluoromethyl)-1,3,4-oxadiazol-2-yl)-2-(3′-(2,2,2-trifluoroethoxy)biphenyl-2-yl)isoindolin-1-one], 98%; as for `N#CC1(c2ccc(-c3ccccc3N3Cc4ccc(-c5nnc(C(F)F)o5)cc4C3=O)cc2)CC1` [Example 316, 1-(2′-(6-(5-(difluoromethyl)-1,3,4-oxadiazol-2-yl)-1-oxo-1,3-dihydro-2H-isoindol-2-yl)-biphenyl-4-yl)cyclopropane-carbonitrile], 92%.
With `COCCOc1ccccc1-c1ccccc1N1Cc2ccc(-c3nnc(C(F)F)o3)cc2C1=O` [Example 317, 6-(5-(difluoromethyl)-1,3,4-oxadiazol-2-yl)-2-(2′-(2-methoxyethoxy)biphenyl-2-yl)isoindolin-1-one] the figure was 97%; with `O=C1c2cc(-c3nnc(C(F)F)o3)ccc2CN1c1ccccc1-c1cnn(C(F)F)c1` [Example 318, 6-(5-(difluoromethyl)-1,3,4-oxadiazol-2-yl)-2-(2-(1-(difluoromethyl)-1H-pyrazol-4-yl)phenyl)isoindolin-1-one], 98%; with `O=C1c2cc(-c3nnc(C(F)F)o3)ccc2CN1c1ccccc1-c1cnn(C2CCOCC2)c1` [Example 319, 6-(5-(difluoromethyl)-1,3,4-oxadiazol-2-yl)-2-(2-(1-(tetrahydro-2H-pyran-4-yl)-1H-pyrazol-4-yl)phenyl)-isoindolin-1-one], 86%.
With `Cn1nc(C(F)(F)F)cc1-c1ccccc1N1Cc2ccc(-c3nnc(C(F)F)o3)cc2C1=O` [Example 320, 6-(5-(difluoromethyl)-1,3,4-oxadiazol-2-yl)-2-(2-(1-methyl-3-(trifluoromethyl)-1H-pyrazol-5-yl)phenyl)-isoindolin-1-one] the figure was 99%; with `COCCOc1ccc(-c2ccccc2N2Cc3ccc(-c4nnc(C(F)F)o4)cc3C2=O)cc1` [Example 321, 6-(5-(difluoromethyl)-1,3,4-oxadiazol-2-yl)-2-(4′-(2-methoxyethoxy)biphenyl-2-yl)isoindolin-1-one], 98%; with `O=C1c2cc(-c3nnc(C(F)F)o3)ccc2CN1c1ccccc1-c1cnc(OCC(F)(F)F)nc1` [Example 322, 6-(5-(difluoromethyl)-1,3,4-oxadiazol-2-yl)-2-(2-(2-(2,2,2-trifluoroethoxy)-pyrimidin-5-yl)phenyl)-isoindolin-1-one], 23%.
In the case of `O=C1c2cc(-c3nnc(C(F)F)o3)ccc2CN1c1ccccc1-c1cnn(Cc2ccccn2)c1` [Example 323, 6-(5-(difluoromethyl)-1,3,4-oxadiazol-2-yl)-2-(2-(1-(pyridin-2-ylmethyl)-1H-pyrazol-4-yl)phenyl)-isoindolin-1-one], the inhibition at 10 µM worked out at 97%.
As for `N#CCOc1cccc(-c2ccccc2N2Cc3ccc(-c4nnc(C(F)F)o4)cc3C2=O)c1` [Example 324, ((2′-(6-(5-(difluoromethyl)-1,3,4-oxadiazol-2-yl)-1-oxo-1,3-dihydro-2H-isoindol-2-yl)biphenyl-3-yl)oxy)-acetonitrile], the figure is 97%.
With `O=C(c1cccc(-c2ccccc2N2Cc3ccc(-c4nnc(C(F)F)o4)cc3C2=O)c1)N1CCCC1` [Example 325, 6-(5-(difluoromethyl)-1,3,4-oxadiazol-2-yl)-2-(3′-(pyrrolidin-1-ylcarbonyl)-biphenyl-2-yl)isoindolin-1-one] the figure was 100%.
As for `O=C1c2cc(-c3nnc(C(F)F)o3)cc(F)c2CN1C[C@@H]1CCCN1` [Example 326, 6-(5-(difluoromethyl)-1,3,4-oxadiazol-2-yl)-4-fluoro-2-((2S)-pyrrolidin-2-ylmethyl)-isoindolin-1-one], the figure is 86%.
